From US20110129542A1, “SUBSTITUTED AZEPINE- AND DIAZEPINE-SULFONAMIDES USEFUL TO INHIBIT 11BETA-HYDROXYSTEROID DEHYDROGENASE TYPE-1” (Schering Corporation, priority 2007, published 2011)

What was measured:
Mouse 11-β-HSD1 = Mouse 11-β-HSD1 (Mus musculus, UniProt P50172); assay: Measurement of 11β-HSD1 activity (SPA, 3H-cortisone, membrane), mouse enzyme; assay type: biochemical; conditions: 125 nM 3H-cortisone, 3 mM NADPH, 0.5 μg membrane, room temperature 1 hr
Experimental: (§1) Measurement of 11β-HSD1 activity
(§2) The reaction was incubated at room temperature for 1 hr before it was stopped by addition of […] containing 20 mM NaPO4 pH 7.5, 30 μM 18β-glycyrrhetinic acid, 1 μg/ml monoclonal anti-cortisol antibody (Biosource) and 2 mg/ml anti-mouse antibody coated scintillation proximity assay (SPA) beads (Amersham Bioscience). The mixture was incubated at room temperature for 2 hrs with vigorous shaking and analyzed on TopCount scintillation counter.

Human 11-β-HSD1 = Human 11-β-HSD1 (Homo sapiens, UniProt P28845); assay: Measurement of 11β-HSD1 activity (SPA, 3H-cortisone, membrane), human enzyme; assay type: biochemical; conditions: 125 nM 3H-cortisone, 3 mM NADPH, 0.5 μg membrane, room temperature 1 hr
Chain of Human 11-β-HSD1 (P28845 whole entry): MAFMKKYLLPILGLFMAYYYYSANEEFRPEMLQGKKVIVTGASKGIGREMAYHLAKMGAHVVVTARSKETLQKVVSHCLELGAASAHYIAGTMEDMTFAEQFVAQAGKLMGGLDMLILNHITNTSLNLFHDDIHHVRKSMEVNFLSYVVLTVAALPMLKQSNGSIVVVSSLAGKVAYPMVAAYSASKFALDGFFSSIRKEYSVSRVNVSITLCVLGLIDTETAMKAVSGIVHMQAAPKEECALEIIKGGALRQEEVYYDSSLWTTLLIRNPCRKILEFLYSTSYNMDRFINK
Experimental: as §1, §2

Chain of Mouse 11-β-HSD1 (P50172 whole entry): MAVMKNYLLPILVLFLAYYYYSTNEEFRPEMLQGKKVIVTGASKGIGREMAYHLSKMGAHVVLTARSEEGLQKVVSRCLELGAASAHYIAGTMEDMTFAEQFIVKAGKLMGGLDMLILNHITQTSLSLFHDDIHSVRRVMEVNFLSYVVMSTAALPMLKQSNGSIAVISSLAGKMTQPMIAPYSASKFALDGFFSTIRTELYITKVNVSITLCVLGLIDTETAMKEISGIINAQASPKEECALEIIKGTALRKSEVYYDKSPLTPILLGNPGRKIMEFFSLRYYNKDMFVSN

SMILES	IC50 (Mouse 11-β-HSD1)	IC50 (Human 11-β-HSD1)
O=S(=O)(c1ccc(Cl)cc1)N1CCCC(O)(c2ccccc2)CC1 (centres unmarked) [Compound 6]	2720 nM	1070 nM
COc1ccc(S(=O)(=O)N2CCCC(O)(c3ccccc3)CC2)cc1 (centres unmarked) [Compound 1]	1980 nM	1320 nM
COc1ccc(S(=O)(=O)N2CC=C(c3ccccc3)CCC2)cc1 [Compound 40]	1550 nM	178 nM
CC(C)(C)OC(=O)N1CCCN(S(=O)(=O)c2ccc(C(C)(C)C)cc2)CC1 [Compound 46]	2760 nM	256 nM
CC(C)(C)c1ccc(S(=O)(=O)N2CCCN(C3CCCC3)CC2)cc1 [Compound 43]	263 nM	30 nM
COc1ccc(S(=O)(=O)N2CCC=C(c3ccccc3)CC2)cc1 [Compound 34]	1880 nM	58 nM
CC(C)(C)c1ccc(S(=O)(=O)N2CCCN(C3CC4CCC3C4)CC2)cc1 (centres unmarked) [Compound 47]	102 nM	19 nM
CC(=O)c1ccc(S(=O)(=O)N2CCCC(C)(O)CC2)cc1 (centres unmarked) [Compound 29]	> 10000 nM	5250 nM

Further lines, results first:

IC50 (Mouse 11-β-HSD1)	IC50 (Human 11-β-HSD1)	SMILES
2540 nM	254 nM	CC(=O)N1CCCN(S(=O)(=O)c2ccc(C(C)(C)C)cc2)CC1 [Compound 44]
57 nM	3 nM	COC1(C)CCCN(S(=O)(=O)c2ccc(C(C)(C)C)cc2)CC1 (centres unmarked) [Compound 18]
165 nM	7 nM	COC1CCCN(S(=O)(=O)c2ccc(C(C)(C)C)cc2)CC1 (centres unmarked) [Compound 12]
2300 nM	3740 nM	CC(C)(C)c1ccc(S(=O)(=O)N2CCCNCC2)cc1 [Compound 45]
629 nM	466 nM	CC(C)(C)c1ccc(S(=O)(=O)N2CCCC(O)CC2)cc1 (centres unmarked) [Compound 11]
